Values belong to the compound of their own block, whether it stands above or below them.
Key:
rA3R [1] = target: T1, rA3R (Rattus norvegicus, UniProt P28647); assay: NanoBRET competition binding with AV039; conditions: displacement of AV039; read-out: pKi rA3R (converted)
T1 construct: expressed in transfected cells; host or cells: Flp-In-CHO (ThermoFisher R75807), pcDNA5/FRT
T1 sequence (P28647 1-320): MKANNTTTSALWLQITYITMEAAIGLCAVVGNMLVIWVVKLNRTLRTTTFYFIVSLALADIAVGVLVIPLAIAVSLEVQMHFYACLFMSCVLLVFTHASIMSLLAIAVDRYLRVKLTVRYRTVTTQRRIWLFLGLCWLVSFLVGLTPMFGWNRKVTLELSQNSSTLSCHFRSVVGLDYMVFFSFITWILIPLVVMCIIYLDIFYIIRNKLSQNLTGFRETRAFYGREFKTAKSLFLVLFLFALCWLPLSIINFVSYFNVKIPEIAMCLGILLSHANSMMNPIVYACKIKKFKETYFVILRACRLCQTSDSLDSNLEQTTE
Description: Here data was fitted with the ‘two-site Ki model’, build into Prism to determine high affinity and low affinity values for the unlabelled agonists. […] BRET was measured following the addition of the Nluc substrate, Furimazine (0.1 μM).

rA3R [2] = target: T1, rA3R; assay: cAMP inhibition at rA3R (Flp-In-CHO); assay type: cell-based
Excerpt: Cell lines were maintained using standard subculturing routines as guided by the European Collection of Cell Culture (ECACC) and checked annually for mycoplasma infection using an EZ-PCR mycoplasma test kit from Biological Industries (Kibbutz Beit-Haemek, Israel). To investigate the signalling properties of the rat A3R (rA3R) and mutants of the human A1R (hA1R), stable cell lines were generated using Flp-In-CHO cells (ThermoFisher - R75807). Untagged hA1R from sigNanoLuciferase (Nluc)-A1R in pcDNA3.1+ and untagged rA3R from sigNluc-A3R in pcDNA3.1 + (both gifted by Dr Steve Briddon (University of Nottingham)) were cloned into the pcDNA5/FRT expression vector (Thermo Fisher Scientific). Mutations within the hA1R were made using the QuikChange Lightening Site-Directed Mutagenesis Kit (Agilent Technologies) in accordance with the manufacturer’s instructions. Constructs for generating Goa/b interfering and scrambled peptides were generated by PCR and cloned into the BamHI/HindIII site of pcDNA3.1- as described in Gilchrist et al.[60],. Prior to the initiator codon a Kozak sequence was included for enhanced translation. The peptide sequences used were: for Goa […], for Gob […], and for the scrambled peptide […] was used. Constructs were sequenced to confirm fidelity. Flp-In-CHO cells were generated through co-transfection of the cell line with pcDNA5/FRT expression vector (Thermo Fisher Scientific) containing the WT or mutant hA1R, or rA3R, and the Flp recombinase expressing plasmid, pOG44 (Thermo Fisher Scientific), in accordance with the manufacturer’s instructions. […] CHO cell lines expressing ARs of interest (including mutants of the hA1R) were routinely cultured in Ham’s F-12 nutrient mix supplemented with 10% foetal bovine serum (FBS), at 37 °C with 5% CO2, in a humidified atmosphere.

[3] = tested on: native presynaptic A1Rs, rat hippocampal slices; assay: Extracellular fEPSP recording, inhibition of excitatory synaptic transmission in hippocampal slices; assay type: cell-based
Description: Rats were kept on a 12-hour light-dark cycle with slices made 90 min after entering the light cycle. […] The brain was removed, cut down the midline and the two sides of the brain stuck down to a metal base plate using cyanoacrylate glue. […] Slices were stored at 34 °C for 1–6 h in aCSF (1 mM MgCl2, 2 mM CaCl2) before use.
A slice was transferred to the recording chamber, submerged in aCSF and perfused at 4–6 ml min^−1 (32 ± 0.5 °C). The slice was placed on a grid allowing perfusion above and below the tissue and all tubing was gastight (to prevent loss of oxygen). […] Field excitatory postsynaptic potentials (fEPSPs) were evoked with either an isolated pulse stimulator model 2100 (AM Systems, WA) or ISO-Flex (AMPI, Jerusalem, Israel). For fEPSPs a 10–20 min baseline was recorded at a stimulus intensity that gave 40-50% of the maximal response. […] For fEPSP slope, a 1 ms linear region after the fibre volley was measured. Extracellular recordings were made independently on two electrophysiology rigs.
Statistical significance was tested as indicated in the text using paired or unpaired two-tailed t-tests or one-way or two-way ANOVAs with repeated measures (RM) as appropriate. Bonferroni corrections for multiple comparisons were performed. All in vitro cell signalling assay data was analysed using Prism 8.4 (Graphpad software, San Diego, CA), with all concentration-response curves being fitted using a 3 parameter logistic equation to calculate response range and IC50. All cAMP data was normalised to a forskolin concentration-response curve ran in parallel to each assay.

[4] = target: T2, β-arrestin2 recruitment to hA3R (Homo sapiens, UniProt P0DMS8); assay: BRET β-arrestin2 recruitment to A3R, HEK 293T; assay type: cell-based
T2 construct: expressed in transfected cells; host or cells: HEK 293T (ATCC CRL-3216), transient
T2 sequence (P0DMS8 whole entry): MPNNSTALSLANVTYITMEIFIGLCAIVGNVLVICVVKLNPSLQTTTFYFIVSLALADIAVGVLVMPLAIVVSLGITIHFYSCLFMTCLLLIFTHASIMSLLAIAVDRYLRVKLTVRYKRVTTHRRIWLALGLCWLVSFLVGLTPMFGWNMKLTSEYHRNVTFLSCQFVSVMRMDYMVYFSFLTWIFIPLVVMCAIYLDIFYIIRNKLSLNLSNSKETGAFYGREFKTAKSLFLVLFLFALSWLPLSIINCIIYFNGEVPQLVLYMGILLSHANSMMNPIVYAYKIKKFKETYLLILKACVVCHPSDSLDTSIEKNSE

[5] = tested on: CA1 pyramidal cells (Goa / Gob signalling); assay: Whole-cell voltage-clamp, adenosine-induced outward current with intracellular G protein interfering peptides; assay type: cell-based, rat; conditions: adenosine 10 µM; control conditions
Description: A slice was transferred to the recording chamber and perfused at 3 ml min^−1 with aCSF at 32 ± 0.5 °C. Slices were visualised using IR-DIC optics with an Olympus BX151W microscope (Scientifica) and a CCD camera (Hitachi). […] Voltage and current recordings were obtained using an Axon Multiclamp 700B amplifier (Molecular Devices, USA) and digitised at 20 KHz. Data acquisition and analysis was performed using pClamp 10 (Molecular Devices, USA). For voltage-clamp experiments, CA1 pyramidal cells were held at −60 mV. Peptides to interfere with G protein signalling were introduced via the patch pipette into the recorded cell.
Drugs were made up as stock solutions (1-10 mM) and then diluted in aCSF or saline on the day of use. […] MRS1523 was purchased from Cayman Chemicals (Cambridge Bioscience Ltd., Cambridge UK). […] CA200645 and peptides for interfering with G protein signalling were obtained from Hello Bio (Bristol, UK) and were based on published sequences. […] The scrambled version was […]. […] Peptides were made up as stock solutions (2 mM) and stored at −20 °C. The stock solutions were dissolved in filtered intracellular solution just before use.

frog heart = assay: Isolated frog heart preparation, heart rate; conditions: adenosine 30 µM
Description: Young adult male Xenopus leavis frogs were obtained from Portsmouth Xenopus Resource Centre. […] The animals were dissected to reveal the heart and the pericardium was carefully removed. Heart contractions were measured with a force transducer (AD instruments). Heart rate was acquired via a PowerLab 26 T (AD instruments) controlled by LabChart 7 (AD instruments). The heart was regularly washed with Ringer solution and drugs were applied directly to the heart.

[6] = tested on: heart rate and mean arterial blood pressure; assay: Urethane-anaesthetised rat, heart rate and arterial blood pressure; conditions: adenosine 1 mg kg^−1 IV
Description: Anaesthesia was induced in adult male Sprague–Dawley rats (230-330 g) with isofluorane (2–4%; Piramal Healthcare). The femoral vein was catheterised for drug delivery. Anaesthesia was maintained with urethane (1.2–1.7 g kg^−1; Sigma) in sterile saline delivered via the femoral vein catheter. […] The trachea was cannulated and the femoral artery catheterised, and both were connected to pressure transducers (Digitimer) to record respiratory airflow and arterial blood pressure, respectively. Blood pressure and airflow signals were amplified using the NeuroLog system (Digitimer) connected to a micro1401 interface and acquired on a computer using Spike2 software (v7.08a; Cambridge Electronic Design). […] Airflow measurements were used to calculate: tidal volume (VT; mL; pressure sensors were calibrated with a 3 mL syringe), and respiratory frequency (f; breaths min^−1; BrPM). Minute ventilation (VE; mL min^−1) was calculated as f × VT.
Cardiovascular and respiratory parameters were allowed to stabilise before experiments began. A1R agonists were administered by intravenous (IV) injection and the changes in HR, MAP, f, VT, and VE were measured. […] All injections were administered IV as a 350 µl·kg^-1 bolus.

[7] = Half-life determination in PBS; assay type: physicochemical; conditions: PBS, pH 7.4
Description: […] Samples were analysed by HPLC-MS/MS and corresponding peak areas were recorded for each analyte. The ratio of precursor compound remaining after each time-point relative to the amount present at time 0, expressed as a percentage, is reported as chemical stability.

in vitro = conditions: human, plasma
Description: (§1) At the end of incubation at each of the time points (0, 0.5, 1, 1.5, 2 h), acetonitrile was added to the incubation mixture followed by centrifugation. Samples were analysed by HPLC-MS/MS and peak areas were recorded for each analyte. The area of precursor compound remaining after each of the time points relative to the amount remaining at time 0, expressed as a percentage, was calculated. Subsequently, the t1/2 is estimated from the slope of the initial linear range of the logarithmic curve of compound remaining (%) versus time, assuming first-order kinetics.

[8] = Half-life determination in human plasma; conditions: UoBern01 at 1.00E-06 M
Description: as §1

[9] = incubation 0 minutes, UoBern01 at 1.00E-06 M
[10] = incubation 60 minutes, UoBern01 at 1.00E-06 M
[11] = incubation 120 minutes, UoBern01 at 1.00E-06 M

Compound: Nc1ncnc2c1ncn2[C@@H]1O[C@H](CO)[C@@H](O)[C@H]1O [Adenosine]
Ki (rA3R [1]): 1290 nM
IC50 (rA3R [2]; half-maximal response, cAMP inhibition, read-out: pIC50 rA3R (converted)): 67.6 nM
Range rA3R (rA3R [2]; range of response as percentage of response to 10 μM forskolin): 66.05 ± 5.4%
IC50 ([3]; Rattus norvegicus, read-out: IC50 inhibition of synaptic transmission): 20000 ± 4300 nM
depression of the fEPSP ([3]; adenosine 30 µM): 66.7 ± 6.7%
depression of the fEPSP ([3]; adenosine 30 µM in the presence of 2-Cl-IB-MECA 1 µM): 67.5 ± 6.5%
β-arrestin2 recruitment by the A3R [4]: β-arrestin2 recruitment
outward current induced by adenosine [5]: 40.6 ± 2.2 pA
reduction of heart rate (frog heart): 6.3 ± 0.6 BPM
heart rate after application (frog heart; before 41.8 ± 1.3 BPM): 35.5 ± 1.3 BPM
reduction of HR [6]: ~ 66%
reduction of MAP [6]: ~ 47%
MAP after injection ([6]; resting 86 ± 9 mm Hg): 46 ± 4 mm Hg
HR after injection ([6]; resting 432 ± 21 BPM): 147 ± 12 BPM

Mean / Half-Life ([7]; UoBern01 at 1.00E-06 M): >120 min
1st / % Compound Remaining [7, 9]: 100%
2nd / % Compound Remaining [7, 9]: 100%
Mean / % Compound Remaining [7, 9]: 100%
1st / % Compound Remaining ([7]; incubation 30 minutes): 95.1%
2nd / % Compound Remaining ([7]; incubation 30 minutes): 97.9%
Mean / % Compound Remaining ([7]; incubation 30 minutes): 96.5%
1st / % Compound Remaining [7, 10]: {129.3} %
2nd / % Compound Remaining [7, 10]: 96.1%
Mean / % Compound Remaining [7, 10]: 96.1%
1st / % Compound Remaining ([7]; incubation 90 minutes): 86.5%
2nd / % Compound Remaining ([7]; incubation 90 minutes): 89.2%
Mean / % Compound Remaining ([7]; incubation 90 minutes): 87.8%
1st / % Compound Remaining [7, 11]: {72.3} %
2nd / % Compound Remaining [7, 11]: 76.6%
Mean / % Compound Remaining [7, 11]: 76.6%
half-life ([7]; read-out: 1st / Half-Life): > 120 min
half-life (in vitro): 46.9 min
2nd / Half-Life [8]: 50.4 min
Mean / Half-Life [8]: 49 min
1st / % Compound Remaining ([8]; incubation 0 minutes): 100%
2nd / % Compound Remaining ([8]; incubation 0 minutes): 100%
Mean / % Compound Remaining ([8]; incubation 0 minutes): 100%
1st / % Compound Remaining ([8]; incubation 30 minutes): 69.6%
2nd / % Compound Remaining ([8]; incubation 30 minutes): 53.9%
Mean / % Compound Remaining ([8]; incubation 30 minutes): 61.7%
1st / % Compound Remaining ([8]; incubation 60 minutes): 44.8%
2nd / % Compound Remaining ([8]; incubation 60 minutes): 36.9%
Mean / % Compound Remaining ([8]; incubation 60 minutes): 40.9%
1st / % Compound Remaining ([8]; incubation 90 minutes): 29.3%
2nd / % Compound Remaining ([8]; incubation 90 minutes): 22.6%
Mean / % Compound Remaining ([8]; incubation 90 minutes): 26%
1st / % Compound Remaining ([8]; incubation 120 minutes): 16.8%
2nd / % Compound Remaining ([8]; incubation 120 minutes): 19.6%
Mean / % Compound Remaining ([8]; incubation 120 minutes): 18.2%
Compound: CC(C)[N+](C)(CCOC(=O)C1c2ccccc2Oc2ccccc21)C(C)C [Propantheline]

— paper PMC9293909 (Nature Communications, 2022)
